Results reported in ChEMBL document CHEMBL5325424, “Structural design, synthesis, and anti-Trypanosomatidae profile of new Pyridyl-thiazolidinones” (Eur J Med Chem, 2023).
Calls of active or inactive are those of the source. The calls are words filed in the database; no cut-off is given here.

What was measured:
Leishmania amazonensis [1] = experiment: Antileishmanial activity against Leishmania amazonensis WHOM/00 LTB 0016 promastigotes assessed as parasite growth inhibition incubated for 72 hrs; type: functional, organism-based; conditions: WHOM/00 LTB 0016, 72 h
[2] = Selectivity index, ratio of CC50 for mouse RAW264.7 cells to IC50 for Trypanosoma cruzi Tulahuen amastigotes infected in mouse L929 cells; type: toxicity, cell-based; conditions: read-out: Ratio CC50/IC50
Trypanosoma cruzi [3] = experiment: Antitrypanosomal activity against Trypanosoma cruzi Y trypomastigotes infected in African green monkey Vero cells assessed as parasite growth inhibition incubated for 24 hrs by hemocytometry; type: functional, organism-based
Leishmania amazonensis [4] = experiment: Antileishmanial activity against Leishmania amazonensis WHOM/00 LTB 0016 amastigotes infected in mouse RAW264.7 cells assessed as parasite growth inhibition incubated for 24 hrs by panoptic staining based assay; type: functional, organism-based; conditions: WHOM/00 LTB 0016, RAW264.7, 24 h
[5] = Selectivity index, ratio of CC50 for mouse RAW264.7 cells to IC50 for Trypanosoma cruzi Y trypomastigotes infected in African green monkey Vero cells; type: toxicity; conditions: read-out: Ratio CC50/IC50
[6] = Cytotoxicity against mouse RAW264.7 cells incubated for 48 hrs by MTT assay; type: toxicity, cell-based
[7] = Selectivity index, ratio of CC50 for mouse RAW264.7 cells to IC50 for Leishmania amazonensis WHOM/00 LTB 0016 amastigotes infected in mouse RAW264.7 cells; type: toxicity, cell-based; conditions: read-out: Ratio CC50/IC50
[8] = Selectivity index, ratio of CC50 for mouse RAW264.7 cells to IC50 for Leishmania amazonensis WHOM/00 LTB 0016 promastigotes; type: toxicity; conditions: read-out: Ratio CC50/IC50
Trypanosoma cruzi [9] = experiment: Antitrypanosomal activity against Trypanosoma cruzi Tulahuen amastigotes infected in mouse L929 cells assessed as parasite growth inhibition measured after 7 days by CPRG/Nonidet based assay; type: functional, organism-based; conditions: L929, 168 h
Splenocyte = experiment: Immunomodulatory activity in mouse splenocytes assessed as reduction in IL-6 level at 10 ug/ml incubated for 24 hrs by flow cytometry; type: functional, cell-based; conditions: dose 10.0 µg/ml

IC50 (Trypanosoma cruzi [3]) [µM] | IC50 (Trypanosoma cruzi [9]) [µM] | SMILES | IC50 (Leishmania amazonensis [1]) [µM] | selectivity ratio [2] | IC50 (Leishmania amazonensis [4]) [µM] | selectivity ratio [5] | CC50 at 48 h [6] [µM] | selectivity ratio [7] | selectivity ratio [8] | Activity (Splenocyte)
53.9 | 0.81 | CN1C(=O)C(C)(C)S/C1=N/N=C/c1ccccn1 | 38.3 | 477 | 380 | 7.2 | 387 | 1.01 | 10.1 | 
11.3 | 8.21 | O=C1CS/C(=N/N=C/c2ccccn2)N1 | 80.6 | 59.3 | 62.8 | 42.6 | 486 | 7.74 | 6 | 
427 | 5.81 | CN1C(=O)CS/C1=N/N=C/c1ccccn1 | 854 | 47.1 | 427 | 0.6 | 274 | 0.64 | 0.3 | 
11 | 0.75 | CC(C)C1S/C(=N/N=C/c2ccccn2)N(C)C1=O (stereo not given) | 20.2 | 355 | 18.6 |  | 267 | 14.3 | 13.2 | 
84.4 | 0.76 | CNC(=S)N/N=C(\C)c1ccccn1 | 69.5 | 9.75 | 27.2 | 0.08 | 7.49 | 0.27 | 0.1 | 
1.5 | 0.89 | C/C(=N\N=C1\SC(C(C)C)C(=O)N1c1ccccc1)c1ccncc1 (stereo not given) | 22.4 | 332 | 5.7 | 197 | 296 | 51.9 | 13.2 | 
111 | 80.5 | C/C(=N\N=C1/SCC(=O)N1C)c1ccccn1 | 506 | 3.61 | 80.5 | 2.6 | 291 | 3.61 | 0.6 | 
4.2 | 8.74 | C/C(=N\N=C1/SCC(=O)N1c1ccccc1)c1ccccn1 | 259 | 25.5 | 322 | 53.2 | 223 | 0.69 | 0.9 | 
2.04 | 5.66 | CNC(=S)N/N=C/c1ccccn1 | 13.8 | 9.72 | 515 | 27 | 55.1 | 0.1 | 3.97 | 
362 | 72.4 | C/C(=N\N=C1/NC(=O)C(C(C)C)S1)c1ccncc1 (stereo not given) | 724 | 2.46 | 72.4 | 0.5 | 179 | 2.46 | 0.2 | 
138 | 1.39 | C/C(=N\NC(N)=S)c1ccccn1 | 20 | 11.6 | 515 | 0.11 | 16.1 | 0.03 | 0.8 | 
322 | 0.62 | C/C(=N\N=C1/SCC(=O)N1c1ccccc1)c1ccncc1 | 644 | 250 | 323 | 0.5 | 155 | 0.48 | 0.2 | 
43.9 | 0.84 | CC(C)C1S/C(=N/N=C/c2ccccn2)NC1=O (stereo not given) | 40.3 | 305 | 8.77 | 5.8 | 256 | 29.2 | 6.4 | 
1.27 | 2.88 | C/C(=N\NC(=S)Nc1ccccc1)c1ccncc1 | 41.4 | 256 | 370 | 583 | 740 | 2 | 17.9 | 
38 | 9.15 | C/C(=N\N=C1\NC(=O)CS1)c1ccccn1 | 15.1 | 14.7 | 241 | 3.5 | 134 | 0.55 | 8.9 | 
89.5 | 1.61 | CC1(C)S/C(=N/N=C/c2ccccn2)NC1=O | 123 | 279 | 403 | 5 | 449 | 1.11 | 3.7 | 
403 | 7.59 | C/C(=N\N=C1/SCC(=O)N1C)c1ccncc1 | 806 | 56.2 | 403 | 1.1 | 426 | 1.05 | 0.5 | 
51.1 | 235 | CNC(=S)N/N=C(\C)c1ccncc1 | 233 | 2.4 | 481 | 11.1 | 567 | 1.18 | 2.43 | 
5.77 | 0.07 | C/C(=N\NC(=S)Nc1ccccc1)c1ccccn1 | 41.4 | 82.4 | 85.5 | 1 | 5.77 | 0.06 | 0.13 | 
70.9 | 3.81 | O=C1CS/C(=N/N=C/c2ccccn2)N1c1ccccc1 | 675 | 16.2 | 337 | 0.9 | 61.9 | 0.18 | 0.1 | 
 |  | CCCCCCCCCCCCCCCCOP(=O)([O-])OCC[N+](C)(C)C [MILTEFOSINE] | 15.8 |  | 7.08 |  |  | 17.5 | 8.79 | Active
344 | 68.9 | C/C(=N\N=C1\SC(C(C)C)C(=O)N1C)c1ccncc1 (stereo not given) | 689 | 5.17 | 68.9 | 1 | 356 | 5.17 | 0.5 | 
185 | 6.3 | C/C(=N\N=C1/NC(=O)CS1)c1ccncc1 | 854 | 43.8 | 427 | 1.5 | 276 | 0.64 | 0.3 | 
168 | 242 | C/C(=N\NC(N)=S)c1ccncc1 | 104 | 1.91 | 515 | 2.76 | 464 | 0.9 | 4.5 | 
99.8 | 1.6 | N/C(S)=N/N=C/c1ccccn1 | 15.9 | 5.37 | 555 | 0.08 | 8.65 | 0.01 | 0.54 | 
